Results from US20050059615A1, “Transmucosal dosage forms for brain-targeted steroid chemical delivery systems” (priority 2003, published 2005).

What was measured:
corticosterone = test: Suppression of stress-induced elevation of corticosterone (15-minute restraint stress); format: in vivo, Sprague-Dawley rats; settings: 15-minute stress
Procedure: (§1) Ability to suppress stress-induced ACTH and corticosterone is a measure of the anti-inflammatory action of a test substance.
(§2) Adult male Sprague-Dawley rats (Charles River Breeding Laboratories, Wilmington, Mass.) weighing 300-325 grams were selected for use in this study. The rats were housed individually in wire-bottomed cages in a climate-controlled room (23° C.) with a 12 hour light/12 hour dark cycle of artificial lighting. The animals were maintained on this light cycle for 10 days prior to the start of the experiment. Purina cat chow and tap water were provided ad libitum.
(§3) Rats then were subjected to either no stress or light restraint stress for 5 or 15 minutes on days 0, 1, 3, 5 or 7. Each experimental group consisted of six animals. For light restraint testing, the rats were placed in individual wire-mesh cages which permitted limited movement in a lateral or longitudinal direction. Nonstressed control rats were gently removed from their cages and immediately sacrificed. All animals were killed immediately at the end of the stress periods by decapitation. Trunk blood was rapidly collected in iced tubes containing EDTA, and the plasma was separated by cold centrifugation and stored at −80° C. until radioimmunoassay.
Plasma corticosterone was measured in duplicate by radioimmunoassay using a double-antibody technique (Cambridge Medical Tech., Inc., Billerica, Mass.). The intra-assay coefficient of variation was <2.63% and the interassay coefficient of variation was 7.1%. The limit of sensitivity for the assay was 0.39 ng/mL of plasma.
(§4) The significance of differences among mean values was determined by analysis of variance (Anova) and Student-Newman-Keuls tests. The level of probability for all tests was 0.05.

ACTH = test: Suppression of stress-induced elevation of plasma ACTH (light restraint stress); format: in vivo, Sprague-Dawley rats
Procedure: as §1, §2, §3
Plasma ACTH was measured in duplicate by radioimmunoassay using a double-antibody technique (Diagnostic Products Corp., Los Angeles, Calif.). The intra-assay coefficient of variation was 8.25%; and the limit of sensitivity for the assay was 17 pg/mL of plasma.
as §4

[1] = tested on: ovariectomized female rats; test: Lordosis quotient, female rat sexual behavior after ovariectomy; format: in vivo, Sprague Dawley rats
Procedure: Adult female Sprague Dawley rats (220-250 g) from Charles River Hungary Ltd., Godollo, Hungary, were used. Animals were kept in community cages (4 animals/cage) in a climate-controlled room (23∀2EC, 50-60% humidity), with a 14 hour light, 10 hour dark cycle of artificial lighting, using reversed light/dark cycle. Food and water were available ad libitum.
After a minimum five-day acclimatization period, animals were ovariectomized under ether anesthesia, then were left to recover for 3 weeks before testing (reconvalescence). All animals were treated in accordance with the guidelines of the European Communities Council Directive (86/609/EEC) and studies were permitted by the Institutional Animal Care Commission.
Estradiol benzoate and progesterone were obtained from Sigma Chemical Co. Inc., Budapest, Hungary. 2-Hydroxypropyl-β-cyclodextrin was purchased from Cerestar Inc., Hammond, Ind., US. […] E2-CDS as a 3% complex with HPβCD (E2-CDS-CD) was dissolved in distilled water and diluted with 27% HPβCD solution. E2-CDS-CD was synthesized by Alchem Laboratories Corporation, Alachua, Fla., US, using the procedure of Example 2 above.
(§5) After recovery from surgery, ovariectomized female rats were divided into four groups and treated once a day for five days intravenously, via a bolus injection through the tail vein, as follows: (1) control, 27% HPβCD solution; (2) 0.003 mg/kg E2-CDS dissolved in 27% HPβCD solution; (3) 0.01 mg/kg E2-CDS dissolved in 27% HPβCD solution; and (4) 0.03 mg/kg E2-CDS dissolved in 27% HPβCD solution. A minimal number of ovariectomized (8 to 12) females were used per group. Intravenous treatments either with E2-CDS or HPβCD (controls) were carried out daily for 5 days beginning 2 days prior to the first day of behavior observations, in a volume of 0.05 mL/100 g body weight.
The behavior test was conducted in a plexiglass observation cage during the dark cycle. During behavioral observations, only a dim red light was on.
(§6) An experienced and active male rat was placed in the arena 5 minutes prior to the female. […] The lordosis quotient (LQ) expresses the estrogen effect on sexual receptivity and was calculated as follows: LQ=100×number of lordoses/10 mounts The observation of the sexual behavior of each female was carried out, in the case of E2-CDS, every day for 22 days; in the case of EB, investigations were carried out every day for 10 days. […] Citrated blood samples were taken by retro-orbital sinus puncture under light ether anesthesia. The samples were stored at 4EC for one hour, then centrifuged at 1000 g for 10 minutes. Plasma was separated and stored at −80EC until assayed. Plasma LH concentrations from individual samples were measured by double antibody radioimmunoassay kits obtained from Amersham Pharmacia Biotech, Rome, Italy. […] The limit of detection was 15 pg/mL.
(§7) Behavioral changes were analyzed using the Mann-Whitney U test (Siegel, Nonparametric Statistics for the Behavioral Sciences, New York; McGraw-Hill Book Company, Inc., 1956). The Fisher exact test was used for percentage comparisons (Zar, Biostatistical Analysis, Prentice Hall, Inc., Englewood Cliffs, N.J., 1974). Serum LH data were analyzed for each time and treatment group by analysis of variance (ANOVA) followed by Bonferroni posthoc test.

LH = test: Plasma LH in ovariectomized female rats (radioimmunoassay); format: in vivo, Sprague Dawley rats; settings: all dosage levels tested: 0.003, 0.01 and 0.03 mg/kg i.v. daily for 5 days
Procedure: as §5, §6, §7

[2] = 0.003 mg/kg i.v. once a day for 5 days
[3] = 0.01 mg/kg i.v. once a day for 5 days
[4] = 0.03 mg/kg i.v. once a day for 5 days

## C[C@@H]1C[C@H]2[C@@H]3CCC4=CC(=O)C=C[C@]4(C)[C@@]3(F)[C@@H](O)C[C@]2(C)[C@@]1(O)C(=O)COC(=O)C1=CN(C)C=CC1 [DEX-CDS, 9-fluoro-11β,17-dihydroxy-16α-methyl-21-{[(1-methyl-1,4-dihydropyridin-3-yl)carbonyl]oxy}pregna-1,4-diene-3,20-dione]
corticosterone; day 3, single i.v. DEX-CDS 10 mg/kg or DEX 7.65 mg/kg
  suppression of corticosterone response to stress: 33%
corticosterone; day 5, single i.v. DEX-CDS 10 mg/kg
  suppression of corticosterone response to stress: 37%
corticosterone; day 7, single i.v. DEX-CDS 10 mg/kg
  suppression of corticosterone response to stress: 56%
ACTH; 5-minute stress, days 1 and 3, single i.v. DEX-CDS 10 mg/kg or DEX 7.65 mg/kg (equimolar)
  effect on stress-related elevations in ACTH: blocked
ACTH; 5-minute stress, single i.v. DEX-CDS 10 mg/kg
  day through which suppression of ACTH elevations continued: 5 days
ACTH; 15-minute stress, day 3, single i.v. DEX-CDS 10 mg/kg or DEX 7.65 mg/kg
  effect on stress-related rises in ACTH: blocked
ACTH; 15-minute stress, single i.v. DEX-CDS 10 mg/kg
  duration of suppression of elevations in ACTH: at least 7 days

## C[C@]12CC[C@@H]3c4ccc(OC(=O)c5ccccc5)cc4CC[C@H]3[C@@H]1CC[C@@H]2O [estradiol benzoate, reference compound]
[1]; [2]
  effect on lordosis quotient: slightly enhanced
  period of the LQ effect: 3 to 7 days
  statistical significance of LQ effect: not statistically significant
[1]; [3]
  effect on lordosis quotient LQ: slightly increased
  period of the LQ effect: day 3 to day 10
  statistical significance of LQ effect: not statistically significant
[1]; [4]
  effect on lordosis quotient LQ: significantly enhanced
  maximal value of lordosis quotient (LQ): 27.3
  period over which the LQ effect lasted: day 3 to day 8
LH
  effect on plasma LH levels: none of the tested dosages of estradiol benzoate gave statistically significant LH suppression
